The values below come from patent US11628164B2, “Composition containing salsolinol for treating liver cancer” (SUNGSHIN WOMEN'S UNIVERSITY R&DB FOUNDATION, priority 2020, dated 2023).

The structures appear in SMILES notation.

Data set [1] deals with SK-Hep1. As to the kind of experiment: Colony formation experiment. In kind it is cell-based, human. The method, then:
Among the human-derived liver cancer cell lines, the SK-Hep1, which is a liver cancer cell lines, is dispensed into 96-wells so as to have a concentration of 1×10^4 cells, and then, the SK-Hep1 is treated once every two or three days so that the salsolinol has a concentration of 25 μM or 50 μM. The salsolinol-treated the SK-Hep1 is further cultured for 3 days under the above-mentioned conditions. After that, the SK-Hep1 is fixed with 4% formaldehyde, stained with crystal violet for 2 hours, and after extraction with an acetic acid, the absorbance (570 nm) is measured. After culturing the SK-Hep1 cells at 1×10^4 cells/well for 24 hours, the SK-Hep1 is treated three times at 48 hour intervals with the salsolinol so as to have a concentration of 25 μM or 50 μM, and then the degree of colony formation is checked (refer to FIG. 2). The colony formation experiment for the SK-Hep11 is repeated a total of 4 times, the statistic process is performed, and comparison and analysis are performed. As a result of the experiment, in the case of being treated with the salsolinol having a concentration of 25 μM, it is confirmed that the colony formation ability of the SK-Hep1 is decreased to a level of 50% compared with the SK-Hep1 not treated with the salsolinol. […]

The test system of the next data set is SNU387. As to the kind of experiment: MTT cell viability, female-derived liver cancer cell line. It counts as cell-based, human. The following applies: SNU387, 5-100 μM salsolinol, 24, 48, 72 hours. As for the experimental part: SK-Hep1 and SNU387, which are human-derived hepatoma cell lines, are distributed from Korea Cell Line Bank. […] The SK-Hep1 and the SNU387 are cultured in a medium including a minimum essential medium (Dulbecco Modified Eagle Medium, DMEM) (Gibco BRL grand Island, N.Y., USA) and in a medium containing 10% FBS (HyClone Lab, Inc, Logan, Utah, USA), 100 U/ml penicillin. (penicillin) and 100 μg/ml streptomycin (Gibco, Grand Island, N.Y., USA) at 37° C. in an atmosphere of 5% CO2. The cultured liver cancer cell lines (SK-HEP1 and SNU387) are dispensed into each well of a 48-well plate so as to have a concentration of 5×10^4 cells. After culturing for 24 hours, the sample is treated with the salsolinol for 24 hours, 48 hours, and 72 hours so as to have a concentration of 5 μM, 15 μM, 25 μM, 50 μM, or 100 μM. After that, 250 μl of 0.5 mg/ml MTT solution (Sigma, St Louis, Mo., US) is added to each well and reacted at 37° C. for 1 hour. After removing the solution, MTT-formazione is lysed and washed with 250 μl of DMSO (Dimethylsulfoxide, Duksan, Gyeonggi, Korea), and then, the absorbance at 540 nm is measured by using a SpectraMax 190 microplate plate reader (Molecular Devices, LCC. San Jose, Calif.). […]

For data set [2], the system named is Ki-67, 8-OHdG in liver tissue. As to the kind of experiment: Immunofluorescence staining of liver tissue (Ki-67, 8-OHdG). It counts as in vivo, C57BL/6 mouse. As for the experimental part: The salsolinol (200 mg/kg) is administered for 6 months through intraperitoneal injection three times per week from the time when the DEN-induced liver cancer mouse model (male) became 7 weeks of age. After the mouse is sacrificed, the experiment is performed.
In the paraffin section slide requested to be manufactured by NORTHUS Co., Ltd., paraffin is removed by using xylene (Duksan, Gyeonggi, Korea). And, after a hydration process with low concentration ethanol (100, 90, 80, and 70% ethanol) at a high concentration, the slide is rinsed twice with running water. Since formaldehyde forms a cross-link between proteins to prevent a primary antibody from binding to the epitope of the antigen, the cross-link is removed by using an antigen retrieval reagent (sigma). After washing the slide thoroughly with running water, and dropping 2% triton for nuclear staining, the slide is left for 45 minutes. After washing the slide thoroughly with running water, blocking proceeds for 1 hour with a PBS solution containing 3% BSA to prevent non-specific binding. Then, after dropping a diluted PBS solution containing 3% BSA diluted with a primary antibody (8-OHdG, Ki-67) (1:500) on the slide, the slide is left at 4° C. for one day. After washing the slide with PBS and dropping a diluted secondary antibody (1:2000) on the slide, the slide is left at 4° C. for 1 hour. After washing the slide with PBS, staining with DAPI (1:200), and dropping 2-3 drops of mounting solution (sigma), the slide is covered with a slide cover. After about a day, the degree of fluorescence staining is checked by using a confocal microscope.
Tumor-related genes Ki-67 and 8-OHdG expressed in the liver tissue of the DEN-induced liver cancer mouse model (male, DEN), the DEN-induced liver cancer mouse model (male, DEN+SAL) administered with the salsolinol, and the normal mouse (male, SAL) administered with the salsolinol are analyzed by using an immunofluorescence measurement method (refer to FIGS. 10 and 11).

Data set [3] has as its system SK-Hep1. As to conditions: cited from earlier work.
Where [4] appears, read: normal mouse administered with salsolinol (SAL).
The mark [5] stands for this setting: SK-Hep1, from KR10-2019-0129765.

Turning to `CC1NCCc2cc(O)c(O)cc21` (stereo not shown) [salsolinol, 6,7-dihydroxy-1-methyl-1,2,3,4-tetrahydroisoquinoline], the results for the “colony formation ability compared with untreated SK-Hep1” value with SK-Hep1 [1] (25 μM salsolinol) and in the data set on SK-Hep1 [1] (50 μM salsolinol) were 50% and 20%, respectively. In addition, the “cell viability (MTT)” value with SNU387 is listed as “cell viability is not decreased”. Also, the Ki-67 expression result in data set [2] (DEN+SAL liver) and in data set [2] (setting [4]) was “not confirmed” throughout. For the same compound, the 8-OHdG expression entry in data set [2] (DEN+SAL liver tissue) and in data set [2] (setting [4]) was “at a low level” throughout. Moreover, in the data set on SK-Hep1 [3] (SK-Hep1, from KR10-2019-0129765, 24 hours), the STAT3 phosphorylation result was “increases signal transducer and transcription 3 (STAT3) phosphorylation”. Besides, the HO-1 expression result in the data set with SK-Hep1 [3] (setting [5]) is recorded as “increased”. Moreover, the cytotoxicity result with SK-Hep1 [3] (setting [5]) was “exhibits cytotoxicity”.
